Columns and labels:
[1] = pH / physical stability on ageing; format: physicochemical; conditions: stable pH and absence of discoloration
[2] = Ready biodegradability of the sequestering agent; conditions: sequestering agent of the composition: A EDDS, B gluconic acid, C IDS Na, D EDTA

Row | Compound | pH Physical stability on ageing [1] | Biodegradability of sequestering agent (ready biodegradability) [2]
1 | O=C(O)C[C@H](NCCN[C@@H](CC(=O)O)C(=O)O)C(=O)O [EDDS, trisodium ethylene diamine-N,N-disuccinate] | imparting product physical stability | biodegradable
2 | O=C(O)CN(CCN(CC(=O)O)CC(=O)O)CC(=O)O [EDTA, ethylene diamine tetraacetate] | – | non-ready biodegradable

From patent publication US6573230B1, “Liquid cleaning composition containing an effective biodegradable chelating agent” (Colgate-Palmolive Company, priority 2002, dated 2003)
